Results as given in the Biogen ADME set (Fang et al. 2023).
Converted amounts (≈) assume the structure as drawn.

Conditions: for aqueous solubility: pH 6.8

MDR1-MDCK efflux ratio | intrinsic clearance, human liver microsomes [mL/min/kg] | intrinsic clearance, rat liver microsomes [mL/min/kg] | aqueous solubility [µg/mL] | fraction unbound, human plasma | fraction unbound, rat plasma | SMILES
28.9 | 9.01 | 25.9 |  |  |  | N[C@@H]1CCCN(c2c(/C=C3\SC(=O)NC3=O)cccc2-c2ccccc2)C1
1.23 | ≤ 4.74 | 20.6 | 34 (≈ 123 µM) |  |  | c1ccc(Cc2nnc(NC3CCOCC3)s2)cc1
 |  |  | 1.75 (≈ 6.07 µM) |  |  | Cc1ccc(C)c(CN2C(=O)C(=O)N(CC(C)C)C2=O)c1
 | 13.7 | 210 |  |  |  | O=C(Cn1ncc2ccccc21)Nc1ccc2c(c1)CCO2
4.31 | ≤ 4.74 | ≤ 10.7 |  |  |  | COCC(C)(C)C(=O)N1CCCC2(CCNCC2)CC1
0.564 | ≤ 4.74 | 41.7 | 25.4 (≈ 111 µM) |  |  | CC(C)(C)n1cc(CNc2cccnc2)cn1
7.27 | 256 | 1670 | 1.63 (≈ 4.07 µM) |  |  | O=C(Cn1nc2n(c1=O)-c1ccccc1C1=NCCN12)N1CCCc2ccccc21
 | 11.5 | 118 |  |  |  | CCOC(=O)N1CCc2cc(NC(=O)c3oc(C)cc3C)ccc21
0.605 | 119 | 741 | 34.7 (≈ 151 µM) |  |  | c1ccc(-c2noc(NCC3CCC3)n2)cc1
0.345 | ≤ 4.74 | ≤ 10.7 | 60.7 (≈ 180 µM) |  |  | O=C(O)CCC(=O)Nc1ccccc1-c1nc2ccccc2[nH]c1=O
3.4 | 88.8 | 297 | 12.6 (≈ 42.1 µM) |  |  | CC(C)c1ccc2c(c1)[C@H](NC(=O)Cn1ccnn1)CCC2
0.664 | 11 | 124 | 26.8 (≈ 95.7 µM) |  |  | COc1cc(CNc2nc3ccccc3nc2C)ccn1
6.04 | 8.08 | 158 |  |  |  | Cc1nc(NCCN2C(=O)CCC2=O)c2c(C)csc2n1
1.82 | 273 | 2040 |  |  |  | CC(C)Cc1nn(C)c(=O)c2c(SCCCO)n(Cc3cccc4ccccc34)cc12
34.6 | 10.1 | 129 | 28.9 (≈ 97.3 µM) |  |  | Cc1ccc(-n2c(S)nnc2-c2ccc(O)cc2)c(C)c1
 | ≤ 4.74 | 253 |  |  |  | CCCn1cc(CNC(=O)CN2CCCC2)cn1
0.459 |  |  | 0.37 (≈ 1 µM) |  |  | CCCCOc1ccccc1-c1cc(C(=O)NCCc2cccs2)[nH]n1
65.6 | ≤ 4.74 | 27.3 | 53.7 (≈ 188 µM) | 0.673 | 0.557 | C=CC(=O)N1C[C@H](Nc2ncnc3[nH]ccc23)CC[C@@H]1C
 | 14.7 | 258 | 30.4 (≈ 72.7 µM) |  |  | COCCOc1ccc2c(c1)ncn2-c1ccc2cccc(N3CCC(N)CC3)c2n1
40.4 | 13.7 | 131 |  |  |  | CCc1nnc(Nc2cc(C)nc(C3CN(C(=O)C(C)C)CCO3)c2)s1 (configuration not stated)
 | ≤ 4.74 | ≤ 10.7 | 62.9 (≈ 194 µM) |  |  | CS(=O)(=O)CCN1CCC(n2c(=O)[nH]c3ccccc32)CC1
0.711 | 31.2 | 835 |  |  |  | CCN(CC)C(=O)CSCc1cncc(F)c1
3.06 | 14.9 | 95.1 | 1.95 (≈ 4.15 µM) |  |  | CNC(=O)c1ccccc1Nc1nc(Nc2ccc(N3CCOCC3)cc2OC)ncc1Cl
3.18 | ≤ 4.74 | 189 | 28.4 (≈ 98.9 µM) |  |  | Cc1ccc(-n2cc(C(=O)NCCN(C)C)nn2)cc1C
122 | 27 | 142 | 64.9 (≈ 162 µM) |  |  | CN1CC[C@@H](c2c(O)cc(O)c3c(=O)cc(-c4ccccc4Cl)oc23)[C@@H]1CO
5.28 | 16.7 | 106 | 95.5 (≈ 233 µM) |  |  | COc1cccc(OCCCn2cncc2-c2cc3c(cc2OC)OCCCO3)c1
1.44 | ≤ 4.74 | ≤ 10.7 |  |  |  | c1ccc(-c2noc(Cn3ccnc3)n2)nc1

MDR1-MDCK efflux ratio | intrinsic clearance, human liver microsomes [mL/min/kg] | intrinsic clearance, rat liver microsomes [mL/min/kg] | aqueous solubility [µg/mL] | fraction unbound, human plasma | fraction unbound, rat plasma | SMILES
2.3 | ≤ 4.74 | 490 | 34.2 (≈ 138 µM) |  |  | CC1CCN(CCNC(=O)c2ccncc2)CC1
22.8 | 150 | 2010 |  |  |  | O=C(c1cn(Cc2cncn2Cc2ccc(Br)cc2)cc1-c1cccc2ccccc12)N1CCOCC1
 | 54 | 1790 |  |  |  | CN(C)c1ccnc(NCc2ccc(F)cc2)n1
0.974 | 75.6 | 637 | 52.8 (≈ 156 µM) | 0.16 | 0.184 | Cc1ncc(CN2CC[C@@H](Nc3cncc(Cl)n3)[C@@H](C)C2)s1
0.828 | ≤ 4.74 | ≤ 10.7 | 37.7 (≈ 140 µM) |  |  | Cn1cc(NC(=O)c2ccccc2C(F)(F)F)cn1
0.313 | 95.2 | 4490 | 2.57 (≈ 8.2 µM) |  |  | Fc1ccc(CNc2nnc(-c3ccc4c(c3)OCO4)o2)cc1
2.16 | 155 | 790 | 6.94 (≈ 15.8 µM) |  |  | CCOC(=O)C1(Cc2cc(-c3ccc(F)cc3)no2)CCN(Cc2ccccc2O)CC1
4.41 | 7.26 | 68.4 | 50.2 (≈ 188 µM) |  |  | N#Cc1ccc2nc([C@H]3CCN(C4CCC4)C3)[nH]c2c1
3.45 | 146 | 835 |  |  |  | CC(C)N(C[C@@H]1O[C@@H](n2cnc3c(N)ncnc32)[C@H](O)[C@H]1O)[C@H]1C[C@@H](CCc2nc3cc(C(C)(C)C)ccc3[nH]2)C1
1.75 | ≤ 4.74 | ≤ 10.7 |  |  |  | C[C@@H](NC(=O)N1CCC2(CCN(C)CC2)C1)c1ccc(F)cc1
50.8 | 57.8 | 573 |  | 0.0931 | 0.0171 | C=CC(=O)N1CCC([C@@H]2CCNc3c(C(N)=O)c(-c4ccc(Oc5ccccc5)cc4)nn32)CC1
0.68 | 7.63 | 61.4 |  |  |  | CC(C)(C(=O)c1ccccc1)/[N+]([O-])=C/c1ccc(F)cc1
10.9 | ≤ 4.74 | ≤ 10.7 | 85.3 (≈ 325 µM) |  |  | CCCNC(=O)C1(Cc2ccccn2)CCOCC1
7.33 | ≤ 4.74 |  |  | 0.0968 |  | NC(=O)c1cnc(N2CCc3[nH]nc(C(F)(F)F)c3C2)c(Cl)c1
5.67 | 53.3 | 182 | 36.5 (≈ 117 µM) |  |  | Cc1ccc(-n2nc(C(=O)N3CC(O)C3)c3c2CCCC3)cc1
 | 206 | 240 | 5.7 (≈ 21.7 µM) |  |  | Cc1ccc(NC(=O)c2cccc3cccnc23)cc1
1.34 | ≤ 4.74 | ≤ 10.7 |  |  |  | Cc1noc(NCc2c(C)nn(C)c2C)n1
1.37 | 11.7 | 213 |  |  |  | Clc1ccc2c(NCCN3CCOCC3)ncnc2c1
0.643 | 19.9 | 483 |  |  |  | Cc1ncn(Cc2noc(-c3ccccc3O)n2)c1C
1.11 | 5.03 | 50.9 | 59.7 (≈ 161 µM) |  |  | COc1ccc(N2CCCN(CC3CCN(C(=O)C4CC4)CC3)CC2)cc1
0.548 | 163 | 908 | 31.3 (≈ 122 µM) |  |  | O=C(NC1CCCC1)C(=O)c1ccc2c(c1)CCC2
 | 39.1 | 304 |  |  |  | Cc1nccc(-c2cccc(NCC(=O)Nc3ccc(F)cc3)c2)n1
93.4 | ≤ 4.74 | 82.3 |  | 0.363 | 0.31 | CN1C(N)=N[C@](C)(c2cc(NC(=O)c3ccc(F)cn3)ccc2F)CS1(=O)=O
0.926 |  |  | 0.39 (≈ 0.868 µM) |  |  | CCOc1ccc(C(=O)Cn2c(=O)n(-c3ccc(F)cc3)c3nc(C)nc(C(N)=O)c32)cc1
2.68 | 23.8 | 393 |  |  |  | O=C(CNc1cc(N2CCCC2=O)ccc1F)N1CCCCCC1
 |  |  |  | 0.105 | 0.0162 | Cc1cccc(-c2nc(C34CCC(C(N)=O)(CC3)CC4)[nH]c2-c2ccc3c(c2)OCO3)n1

SMILES | MDR1-MDCK efflux ratio | intrinsic clearance, human liver microsomes [mL/min/kg] | intrinsic clearance, rat liver microsomes [mL/min/kg] | aqueous solubility [µg/mL] | fraction unbound, human plasma | fraction unbound, rat plasma
O=C1Nc2ccccc2O[C@H]2C[C@@H]1N(Cc1cccnc1)C2 | 17.7 | 12.7 | 281 | 94.3 (≈ 319 µM) |  | 
Cc1nc(N2CCNCC2)c2cnn(C)c2n1 | 15.3 | ≤ 4.74 | 15.1 |  |  | 
